The target of assay [1] is T1, Humicola insolens cellobiose oxidase (CBO, 92 kDa, pI 4.0) (Mycothermus thermophilus, UniProt Q9P8H5).
T1 sequence (Q9P8H5 24-785): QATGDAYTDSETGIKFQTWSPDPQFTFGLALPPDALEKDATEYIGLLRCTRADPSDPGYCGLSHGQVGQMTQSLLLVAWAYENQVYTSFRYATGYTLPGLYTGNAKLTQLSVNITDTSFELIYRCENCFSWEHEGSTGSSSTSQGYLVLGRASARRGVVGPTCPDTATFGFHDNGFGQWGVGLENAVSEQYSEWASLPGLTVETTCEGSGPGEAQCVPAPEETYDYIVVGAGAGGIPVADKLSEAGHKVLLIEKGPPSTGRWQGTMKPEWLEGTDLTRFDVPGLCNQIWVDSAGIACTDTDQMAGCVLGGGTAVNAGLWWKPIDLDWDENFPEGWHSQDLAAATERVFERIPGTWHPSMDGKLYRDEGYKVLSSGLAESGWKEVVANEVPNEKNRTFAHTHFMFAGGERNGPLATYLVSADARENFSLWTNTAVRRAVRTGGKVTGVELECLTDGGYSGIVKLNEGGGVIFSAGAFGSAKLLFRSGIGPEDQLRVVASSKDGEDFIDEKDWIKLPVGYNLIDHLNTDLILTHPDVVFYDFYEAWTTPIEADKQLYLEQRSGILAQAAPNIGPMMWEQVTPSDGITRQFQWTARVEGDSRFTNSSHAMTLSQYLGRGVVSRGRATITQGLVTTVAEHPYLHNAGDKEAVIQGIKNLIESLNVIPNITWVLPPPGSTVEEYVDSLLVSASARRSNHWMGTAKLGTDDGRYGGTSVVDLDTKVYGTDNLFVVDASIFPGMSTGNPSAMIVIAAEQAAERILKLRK
The following applies: for Km: read-out: Km (electron donor), pH 7.5; for kcat (electron donor): sugar + 90 μM DCPIP, mol oxidized cellobiose/s/mol enzyme. Here is the method:
The measurements were performed in 0.1M sodium phosphate buffer at pH 7.5 at 40° C. 450 μl of a mixture of 100 μM of 2,6-Dichlorophenol-indophenol (DCPIP, Merck), 250 μM of cellobiose (Sigma) were mixed with 50 μl enzyme. Units of activity equals μmol cellobiose oxidized (DCPIP reduced) per min.
All measurements were performed in 0.1M sodium phosphate buffer, pH 7.5, at 40° C. […] The reactions were monitored for 400 s as changes in absorbance at the appropirate wavelength (see above). […] The catalytic constants (kcat) were expressed as mol of oxidized cellobiose/s/mol of enzyme. […] The kinetic constants were determined using Lineweaver-Burke plots and were the result of dual determinations.

The target of another assay is T2, CBH II (cellulase) (Humicola insolens, UniProt Q9C1S9).
T2 sequence (Q9C1S9 17-476): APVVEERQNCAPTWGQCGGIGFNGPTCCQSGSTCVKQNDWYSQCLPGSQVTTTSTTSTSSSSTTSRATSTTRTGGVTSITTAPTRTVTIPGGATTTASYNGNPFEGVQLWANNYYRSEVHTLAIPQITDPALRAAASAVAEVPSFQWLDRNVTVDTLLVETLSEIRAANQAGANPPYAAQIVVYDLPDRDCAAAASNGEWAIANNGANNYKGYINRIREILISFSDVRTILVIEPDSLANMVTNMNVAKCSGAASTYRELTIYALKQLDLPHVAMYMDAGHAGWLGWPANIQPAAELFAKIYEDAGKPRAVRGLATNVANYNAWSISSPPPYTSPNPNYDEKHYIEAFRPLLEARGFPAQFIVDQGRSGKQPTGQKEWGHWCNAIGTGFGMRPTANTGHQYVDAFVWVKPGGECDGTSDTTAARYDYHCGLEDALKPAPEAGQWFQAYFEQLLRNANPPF
The experiment in a line: Coupled cellobiose oxidase/DCPIP assay for cellulases. Type of assay: biochemical. The following applies: for Ki: coupled CBO/DCPIP assay, read-out: KL (inhibition constant). The text has this:
The ability of the cellobiose oxidase to oxidize cellodextrins by means of an electron acceptor was utilized in an assay for cellulases. […] With this assay the kinetic constants for reduced cellodextrins of 5 different cellulases have been determined (table 2). […] The enzymes show very different substrate specificity, some of them requiring quite long substrates making it impossible to use the umbelliferyl cellobiosides and lactosides available for steady state kinetic. […] The inhibition constants were determined for two cellulases using the developed assay.

The subject of another assay is EG C (cellulase). Described as above. In kind it is biochemical. To be noted: reduced cellodextrin substrate. The text has this: (§1) The ability of the cellobiose oxidase to oxidize cellodextrins by means of an electron acceptor was utilized in an assay for cellulases. […] With this assay the kinetic constants for reduced cellodextrins of 5 different cellulases have been determined (table 2). […] The enzymes show very different substrate specificity, some of them requiring quite long substrates making it impossible to use the umbelliferyl cellobiosides and lactosides available for steady state kinetic.

The subject of another assay is EG A (cellulase). The description is as above. In kind it is biochemical. The following applies: reduced cellodextrin substrate.
Source text: as §1

A further assay has as its system Endo B (cellulase). Described as above. Type of assay: biochemical. To be noted: reduced cellodextrin substrate.
Source text: as §1

For assay [2], the system named is Endo (cellulase, first line of the table). The assay is described as above. The following applies: reduced cellodextrin substrate. Type of assay: biochemical.
Source text: as §1

In a further assay the target is Endo A (cellulase). Described as above. Type of assay: biochemical. The following applies: coupled CBO/DCPIP assay. The text has this: The ability of the cellobiose oxidase to oxidize cellodextrins by means of an electron acceptor was utilized in an assay for cellulases. By using a substrate without a reducing end, such as a reduced cellodextrin, the reducing ends formed by the hydrolysis by the cellulase will be oxidized by the CBO. Simultaneously the coloured electron acceptor, dichlorophenolindophenol (DCPIP), is reduced by cellobiose oxidase to a colourless compound making it possible to follow the reaction spectrophotometrically at 600 nm DCPIP was chosen as electron acceptor because of its high extinction coefficient.
The inhibitors methyl 4-thiocellotrioside, methyl 4-thiocellotetraoside and methyl 4-thiocellopentaoside were synthesized at the laboratory in Grenoble^5. The inhibition constants were determined for two cellulases using the developed assay.

Setting [3] is: 0.1M sodium phosphate buffer, pH 7.5, 40° C.
The mark [4] stands for this setting: read-out: KL (inhibition constant).
The mark [5] stands for this setting: read-out: KLS (inhibition constant).

Read-outs that look alike come from different tables or passages of the source.

Take `CC(C)(C)C1=CC(=O)C(=O)C(C(C)(C)C)=C1` [Benzoquinone, 3,5-di-tert-butyl-1,2-benzoquinone]: in assay [1] (electron acceptor + 225 μM cellobiose, 0.1M sodium phosphate buffer, pH 7.5, 40° C.), the “kcat (electron acceptor)” value was 15 s⁻¹.

For the compound `OC[C@H]1O[C@@H](O[C@H]2[C@H](O)[C@@H](O)[C@H](O[C@H]3[C@H](O)[C@@H](O)[C@H](O[C@H]4[C@H](O)[C@@H](O)[C@H](O[C@H]5[C@H](O)[C@@H](O)C(O)O[C@@H]5CO)O[C@@H]4CO)O[C@@H]3CO)O[C@@H]2CO)[C@H](O)[C@@H](O)[C@@H]1O` (stereo partly drawn) [Cellopentaose], in assay [1], the Km – broadly, the concentration of substrate that gives half-maximal velocity – is 17 µM. Further, the “kcat (electron donor)” value in assay [1] (setting [3]) stood at 8.3 s⁻¹.

`OC[C@H]1O[C@@H](O[C@H]2[C@H](O)[C@@H](O)[C@H](O[C@H]3[C@H](O)[C@@H](O)[C@H](O[C@H]4[C@H](O)[C@@H](O)C(O)O[C@@H]4CO)O[C@@H]3CO)O[C@@H]2CO)[C@H](O)[C@@H](O)[C@@H]1O` (stereo partly drawn) [Cellotetraose]: the “kcat (electron donor)” value in assay [1] (setting [3]) turned out to be 8.5 s⁻¹.

In the case of `OC[C@H]1O[C@@H](O[C@H]2[C@H](O)[C@@H](O)[C@H](O[C@H]3[C@H](O)[C@@H](O)C(O)O[C@@H]3CO)O[C@@H]2CO)[C@H](O)[C@@H](O)[C@@H]1O` (stereo partly drawn) [Cellotriose], the “kcat (electron donor)” value in assay [1] (setting [3]) amounted to 8.5 s⁻¹.

With `OC[C@H]1OC(O)[C@H](O)[C@@H](O)[C@@H]1O` (stereo partly drawn) [Glucose], the “kcat (electron donor)” value in assay [1] (setting [3]) came to 0 s⁻¹.

As for `CC(=O)N[C@H]1[C@H](O[C@H]2[C@H](O)[C@@H](NC(C)=O)C(O)O[C@@H]2CO)O[C@H](CO)[C@@H](O)[C@@H]1O` (stereo partly drawn) [N,N-Diacetylchitobiose], in assay [1] (setting [3]), the “kcat (electron donor)” value was determined as 0 s⁻¹.

For `CC(=O)N[C@H]1C(O)O[C@H](CO)[C@@H](O[C@@H]2O[C@H](CO)[C@H](O)[C@H](O)[C@H]2O)[C@@H]1O` (stereo partly drawn) [N-Acetyllactosamine], in assay [1] (setting [3]), the “kcat (electron donor)” value stood at 0 s⁻¹.

With `OC[C@@H](O)[C@@H](O[C@@H]1O[C@H](CO)[C@@H](O[C@@H]2O[C@H](CO)[C@@H](O)[C@H](O)[C@H]2O)[C@H](O)[C@H]1O)[C@H](O)[C@@H](O)CO` [Red. DP3], the kcat – broadly, the maximal rate divided by the concentration of active sites – at CBH II (cellulase) (reduced cellodextrin substrate) stood at 0 s⁻¹; with EG C (cellulase) it was 0 s⁻¹; with EG A (cellulase) it was 0 s⁻¹; in the assay with Endo B (cellulase) it was 0 s⁻¹; in assay [2], 0.24 s⁻¹. Moreover, in assay [2], the Km came out at 500 µM.

Turning to `OC[C@@H](O)[C@@H](O[C@@H]1O[C@H](CO)[C@@H](O[C@@H]2O[C@H](CO)[C@@H](O[C@@H]3O[C@H](CO)[C@@H](O)[C@H](O)[C@H]3O)[C@H](O)[C@H]2O)[C@H](O)[C@H]1O)[C@H](O)[C@@H](O)CO` [Red. DP4], the results for the Km (with EG C (cellulase); in the assay with Endo B (cellulase); in assay [2]) were 1600 µM, 1500 µM and 26 µM, respectively. Moreover, the kcat in the assay on EG C (cellulase) was determined as 0.43 s⁻¹; with EG A (cellulase) it was 0 s⁻¹; in the assay with Endo B (cellulase) it was 0.84 s⁻¹; in assay [2], 29 s⁻¹.

`OC[C@@H](O)[C@@H](O[C@@H]1O[C@H](CO)[C@@H](O[C@@H]2O[C@H](CO)[C@@H](O[C@@H]3O[C@H](CO)[C@@H](O[C@@H]4O[C@H](CO)[C@@H](O)[C@H](O)[C@H]4O)[C@H](O)[C@H]3O)[C@H](O)[C@H]2O)[C@H](O)[C@H]1O)[C@H](O)[C@@H](O)CO` [Red. DP5]: the Km turned out to be 68 µM in the assay on EG C (cellulase), 460 µM with EG A (cellulase), 150 µM in the assay on Endo B (cellulase) and 14 µM in assay [2]. The kcat with EG C (cellulase) was determined as 13 s⁻¹; in the assay with EG A (cellulase) it was 0.00 s⁻¹; with Endo B (cellulase), 0.86 s⁻¹; in assay [2], 40 s⁻¹.

As to `OC[C@@H](O)[C@@H](O[C@@H]1O[C@H](CO)[C@@H](O[C@@H]2O[C@H](CO)[C@@H](O[C@@H]3O[C@H](CO)[C@@H](O[C@@H]4O[C@H](CO)[C@@H](O[C@@H]5O[C@H](CO)[C@@H](O)[C@H](O)[C@H]5O)[C@H](O)[C@H]4O)[C@H](O)[C@H]3O)[C@H](O)[C@H]2O)[C@H](O)[C@H]1O)[C@H](O)[C@@H](O)CO` [Red. DP6], the values for the Michaelis constant (Km) in the assay on EG C (cellulase), with EG A (cellulase) and with Endo B (cellulase) were 71 µM, 54 µM and 52 µM, respectively. Besides, the kcat in the assay on EG C (cellulase) turned out to be 11 s⁻¹; in the assay on EG A (cellulase), 0.15 s⁻¹; with Endo B (cellulase), 14 s⁻¹.

As for `OC1OC[C@@H](O[C@@H]2OC[C@@H](O)[C@H](O)[C@H]2O)[C@H](O)[C@H]1O` (stereo partly drawn) [Xylobiose], in assay [1], the Km turned out to be 7100 µM. In addition, in assay [1] (setting [3]), the “kcat (electron donor)” value was determined as 2.15 s⁻¹.

On to methyl 4-thiocellopentaoside [S-DP5], for which the Ki was 15 µM at CBH II (cellulase) and 35 µM on Endo A (cellulase) (setting [4]).

methyl 4-thiocellotetraoside [S-DP4]: the Ki is 270 µM on CBH II (cellulase), 75 µM on Endo A (cellulase) (setting [4]) and 1000 µM on Endo A (cellulase) (setting [5]).

For the compound methyl 4-thiocellotrioside [S-DP3], the Ki at CBH II (cellulase) is 1400 µM; at Endo A (cellulase) (setting [4]), 300 µM; at Endo A (cellulase) (setting [5]), 2000 µM.
